# Assay results from US20230241233A1, “ORAL PHARMACEUTICAL COMPOSITIONS COMPRISING LIPID CONJUGATES” (UNIVERSITAT HEIDELBERG, priority 2020, published 2023).
# Columns and labels:
# [1] = Pharmacokinetic evaluation of octreotide lipid conjugate in beagle dogs (Charles River Study No 47656 PAC); format: in vivo; details: dog, plasma, conjugate dose 0 mg, oral gavage octreotide 0.12 mg/kg, vs iv bolus 0.01 mg/kg, read-out: abs. bioavailability
# Procedure: Between the cycles, a washout phase of one week was performed.
# First, animals received an intravenous bolus injection of 0.01 mg/kg octreotide. The consecutive administrations were given orally by gavage. After a wash-out of one week animals #1 and #2 received 0.12 mg/kg free octreotide and animals #3 and #4 received 0.12 mg/kg octreotide with 0.3 mg/kg lipid-conjugate. After a wash-out of one week animals #1 and #2 received 0.12 mg/kg free octreotide with 1 mg/kg lipid-conjugate and animals #3 and #4 received 0.12 mg/kg octreotide with 3 mg/kg lipid-conjugate. After a wash-out of one week animals #1 and #2 received 0.12 mg/kg free octreotide with 10 mg/kg lipid-conjugate and animals #3 and #4 received 0.12 mg/kg octreotide with 30 mg/kg lipid-conjugate. After a wash-out of one week animals #1 and #2 received 0.012 mg/kg free octreotide with 1 mg/kg lipid-conjugate and animals #3 and #4 received 1.2 mg/kg octreotide with 1 mg/kg lipid-conjugate.
# [2] = Bioavailability of octreotide SEDDS formulation in beagle dogs; details: dog, plasma, oral, 1.5 mg/animal
# Procedure: The administration of octreotide in SEDDS formulation was investigated in a study in beagle dogs at Charles River, Evreux, France (Study No 47656 PAC and 48482 PAC). […] Animals were treated with octreotide in SEDDs formulation, or octreotide alone, prepared in citrate buffer (100 mM, pH 5.5), by single oral administration via gavage. For determination of the absolute bioavailability plasma concentrations after intravenous bolus injection (in PBS) were determined. Between the cycles, a wash-out phase of one week was performed.
# Plasma concentrations of all investigated peptide therapeutics were determined by quantification using a validated UPLC-MS/MS assay (according to the pertinent recommendations for bioanalytical method development of the US FDA and EMA). All assays were performed on a Waters Xevo TQ-XS triple quadrupole tandem mass spectrometer coupled to a Waters Acquity classic UPLC using C18 columns, heated electrospray ionization (ESI), and selected ion monitoring in the positive ion mode.
smiles,measurement,setting,value
C[C@@H](O)[C@@H]1NC(=O)[C@H](CCCCN)NC(=O)[C@@H](Cc2c[nH]c3ccccc23)NC(=O)[C@H](Cc2ccccc2)NC(=O)[C@@H](NC(=O)[C@H](N)Cc2ccccc2)CSSC[C@@H](C(=O)N[C@H](CO)[C@@H](C)O)NC1=O [octreotide],bioavailability,[1],2.1%
same,bioavailability,[2],2.1%
